Patent US20250009742A1 (priority 2021, published 2025)

How the values were obtained:
[1] = Cell viability assay (EZ-Cytox), cytotoxicity; type: cell-based; conditions: human, HepAD38 cells; for viability at 65 h, 100 µM: read-out: Cytotoxicity % Livability (@100 μM)
Protocol: HepAD38 cells were cultured for 2 days in Dulbecco's Modified Eagle's medium (Welgene, LM001-05) supplemented with 10% FBS without tetracycline. […] After 65 hours of treatment, viability was measured using EZ-Cytox cell viability assay kit (Daeil Lab Service) according to the manufacturer's instructions. The absorbance was measured at 450 nm using a spectrophotometer (Spark, Tecan).

[2] = system: intracellular HBV DNA; experiment: Real-time PCR for intracellular HBV DNA in HepAD38 cells; type: cell-based; conditions: Hepatitis B virus, HePAD38, 65 h, 65 hours treatment

For `CS(=O)(=O)Nc1ccc(N(Cc2n[nH]c3c2CCCO3)C(=O)Nc2ccc(F)c(Cl)c2)cc1` [Example 19, N-(4-(3-(3-chloro-4-fluorophenyl)-1-((1,4,5,6-tetrahydropyrano[2,3-c]pyrazol-3-yl)methyl)ureido)phenyl)methanesulfonamide], the CC50 at 65 h [1] was > 100 µM and the IC50 [2] was > 1100 nM.
With `COc1ncc(N(Cc2cc(C(F)F)[nH]n2)C(=O)Nc2cccc(C(F)F)n2)cn1` [Example 179, 1-((5-(difluoromethyl)-1H-pyrazol-3-yl)methyl)-3-(6-(difluoromethyl)pyridin-2-yl)-1-(2-methoxypyrimidin-5-yl)urea] the CC50 at 65 h [1] was > 100 µM, the viability at 65 h, 100 µM [1] was 79.3% and the IC50 [2] was 700 nM.
In the case of `COc1ncc(N(Cc2cc(C(F)(F)F)[nH]n2)C(=O)Nc2nccc(-n3ccnc3)c2F)cn1` [Example 3, 3-(3-fluoro-4-(1H-imidazol-1-yl)pyridin-2-yl)-1-(2-methoxypyrimidin-5-yl)-1-((5-(trifluoromethyl)-1H-pyrazol-3-yl)methyl)urea], the CC50 at 65 h [1] is reported as > 100 µM, the viability at 65 h, 100 µM [1] is reported as 74.2% and the IC50 [2] is reported as > 1100 nM.
For `O=C(Nc1ccc(F)c(Cl)c1)N(Cc1n[nH]c2c1CCCO2)c1cc[nH]n1` [Example 135, 3-(3-chloro-4-fluorophenyl)-1-(1H-pyrazol-3-yl)-1-((1,4,5,6-tetrahydropyrano[2,3-c]pyrazol-3-yl)methyl)urea], the CC50 at 65 h [1] was > 100 µM and the IC50 [2] was 200 nM.
For `COc1ccc(N(Cc2n[nH]c(C(F)(F)F)c2C)C(=O)Nc2ccc(F)c(Cl)c2)cn1` [Example 78, 3-(3-chloro-4-fluorophenyl)-1-(6-methoxypyridin-3-yl)-1-((4-methyl-5-(trifluoromethyl)-1H-pyrazol-3-yl)methyl)urea], the CC50 at 65 h [1] was > 100 µM, the viability at 65 h, 100 µM [1] was 94% and the IC50 [2] was 30.3 nM.
With `CC(C)(O)c1cc(N(Cc2n[nH]c3c2CCOC3)C(=O)Nc2ccc(F)c(Cl)c2)ccn1` [Example 112, 3-(3-chloro-4-fluorophenyl)-1-(2-(2-hydroxypropan-2-yl)pyridin-4-yl)-1-((1,4,5,7-tetrahydropyrano[3,4-c]pyrazol-3-yl)methyl)urea] the CC50 at 65 h [1] was > 66 µM and the IC50 [2] was > 1100 nM.
With `C=C(C)c1c(CN(C(=O)Nc2ccc(F)c(Cl)c2)c2cnc(OC)nc2)n[nH]c1C(F)F` [Example 93, 3-(3-chloro-4-fluorophenyl)-1-((5-(difluoromethyl)-4-(prop-1-en-2-yl)-1H-pyrazol-3-yl)methyl)-1-(2-methoxypyrimidin-5-yl)urea] the CC50 at 65 h [1] was > 100 µM and the IC50 [2] was 320 nM.
With `COc1ncc(N(Cc2cc(C(F)(F)F)[nH]n2)C(=O)NC23CC(Cl)(C2)C3)cn1` [Example 6, 3-(3-chlorobicyclo[1.1.1]pentan-1-yl)-1-(2-methoxypyrimidin-5-yl)-1-((5-(trifluoromethyl)-1H-pyrazol-3-yl)methyl)urea] the CC50 at 65 h [1] was > 100 µM, the viability at 65 h, 100 µM [1] was 100% and the IC50 [2] was > 1100 nM.
For `COc1ncc(N(Cc2cc(C(F)(F)F)[nH]n2)C(=O)Nc2ccc(F)c(C(F)F)n2)cn1` [Example 202, 3-(6-(difluoromethyl)-5-fluoropyridin-2-yl)-1-(2-methoxypyrimidin-5-yl)-1-((5-(trifluoromethyl)-1H-pyrazol-3-yl)methyl)urea], the CC50 at 65 h [1] was > 100 µM, the viability at 65 h, 100 µM [1] was 82.3% and the IC50 [2] was 46 nM.
With `COc1ncc(N(Cc2cc(C#N)[nH]n2)C(=O)Nc2ccc(F)c(C(F)F)n2)cn1` [Example 212, 1-((5-cyano-1H-pyrazol-3-yl)methyl)-3-(6-(difluoromethyl)-5-fluoropyridin-2-yl)-1-(2-methoxypyrimidin-5-yl)urea] the CC50 at 65 h [1] was > 100 µM, the viability at 65 h, 100 µM [1] was 99.4% and the IC50 [2] was 210 nM.
For `COCCc1c(CN(C(=O)Nc2ccc(F)c(Cl)c2)c2ccc(OC)nc2)n[nH]c1C(F)F` [Example 88, 3-(3-chloro-4-fluorophenyl)-1-((5-(difluoromethyl)-4-(2-methoxyethyl)-1H-pyrazol-3-yl)methyl)-1-(6-methoxypyridin-3-yl)urea], the CC50 at 65 h [1] was > 100 µM, the viability at 65 h, 100 µM [1] was 74.5% and the IC50 [2] was > 1100 nM.
In the case of `COc1ncc(N(Cc2cc(C(F)(F)F)[nH]n2)C(=O)Nc2ccc(F)c(C(F)F)c2)cn1` [Example 189, 3-(3-(difluoromethyl)-4-fluorophenyl)-1-(2-methoxypyrimidin-5-yl)-1-((5-(trifluoromethyl)-1H-pyrazol-3-yl)methyl)urea], the CC50 at 65 h [1] is reported as > 100 µM, the viability at 65 h, 100 µM [1] is reported as 58% and the IC50 [2] is reported as 6.5 nM.
With `COc1ncc(N(Cc2n[nH]c(C(F)(F)F)c2C(C)(C)O)C(=O)Nc2ccc(F)c(C(F)F)c2)cn1` [Example 207, 3-(3-(difluoromethyl)-4-fluorophenyl)-1-((4-(2-hydroxypropan-2-yl)-5-(trifluoromethyl)-1H-pyrazol-3-yl)methyl)-1-(2-methoxypyrimidin-5-yl)urea] the CC50 at 65 h [1] was > 100 µM, the viability at 65 h, 100 µM [1] was 87.7% and the IC50 [2] was 740 nM.
With `CS(=O)(=O)Nc1ccc(N(Cc2n[nH]c3c2CCOC3)C(=O)Nc2ccc(F)c(Cl)c2)cc1` [Example 16, N-(4-(3-(3-chloro-4-fluorophenyl)-1-((1,4,5,7-tetrahydropyrano[3,4-c]pyrazol-3-yl)methyl)ureido)phenyl)methanesulfonamide] the CC50 at 65 h [1] was 97.6 µM and the IC50 [2] was > 1100 nM.
With `COc1ccc(N(Cc2cc(C(F)(F)F)[nH]n2)C(=O)Nc2ccc(F)c(C(F)F)c2)cn1` [Example 188, 3-(3-(difluoromethyl)-4-fluorophenyl)-1-(6-methoxypyridin-3-yl)-1-((5-(trifluoromethyl)-1H-pyrazol-3-yl)methyl)urea] the CC50 at 65 h [1] was > 100 µM, the viability at 65 h, 100 µM [1] was 97.9% and the IC50 [2] was 16 nM.
With `COc1ccc(N(Cc2cc(C(F)F)[nH]n2)C(=O)Nc2ccc(F)c(Cl)c2)cn1` [Example 72, 3-(3-chloro-4-fluorophenyl)-1-((5-(difluoromethyl)-1H-pyrazol-3-yl)methyl)-1-(6-methoxypyridin-3-yl)urea] the CC50 at 65 h [1] was > 66.6 µM, the viability at 65 h, 100 µM [1] was 48.5% and the IC50 [2] was 48 nM.
With `N#Cc1ccc(N(Cc2cc(C(F)(F)F)[nH]n2)C(=O)Nc2ccc(F)c(Cl)c2)cn1` [Example 130, 3-(3-chloro-4-fluorophenyl)-1-(6-cyanopyridin-3-yl)-1-((5-(trifluoromethyl)-1H-pyrazol-3-yl)methyl)urea] the CC50 at 65 h [1] was > 100 µM, the viability at 65 h, 100 µM [1] was 68% and the IC50 [2] was 65 nM.
In the case of `COc1ccc(N(Cc2nn(CCOC3CCCCO3)c3c2CCC3)C(=O)Nc2ccc(F)c(Cl)c2)cn1` (stereo not drawn) [Example 66, 3-(3-chloro-4-fluorophenyl)-1-(6-methoxypyridin-3-yl)-1-((1-(2-(tetrahydro-2H-pyran-2-yloxy)ethyl)-1,4,5,6-tetrahydrocyclopenta[c]pyrazol-3-yl)methyl)urea], the CC50 at 65 h [1] is reported as 81.9 µM and the IC50 [2] is reported as > 300 nM.
`COc1cc(N(Cc2cc(C(F)(F)F)[nH]n2)C(=O)Nc2ccc(F)c(Cl)c2)cnn1` [Example 94, 3-(3-chloro-4-fluorophenyl)-1-(6-methoxypyridazin-4-yl)-1-((5-(trifluoromethyl)-1H-pyrazol-3-yl)methyl)urea] gave a CC50 at 65 h [1] of 64.4 µM, a viability at 65 h, 100 µM [1] of 4.8% and an IC50 [2] of 260 nM.
`COc1ncc(N(Cc2cc(C(F)(F)F)[nH]n2)C(=O)Nc2ccc(F)c(Cl)c2)c(C)n1` [Example 28, 3-(3-chloro-4-fluorophenyl)-1-(2-methoxy-4-methylpyrimidin-5-yl)-1-((5-(trifluoromethyl)-1H-pyrazol-3-yl)methyl)urea] gave a CC50 at 65 h [1] of 47.2 µM, a viability at 65 h, 100 µM [1] of 7% and an IC50 [2] of 60 nM.
In the case of `COc1ncc(N(Cc2cc(C(F)(F)F)[nH]n2)C(=O)Nc2ccc(C#N)c(F)c2)cn1` [Example 156, 3-(4-cyano-3-fluorophenyl)-1-(2-methoxypyrimidin-5-yl)-1-((5-(trifluoromethyl)-1H-pyrazol-3-yl)methyl)urea], the CC50 at 65 h [1] is reported as > 100 µM, the viability at 65 h, 100 µM [1] is reported as 107% and the IC50 [2] is reported as 83 nM.
Work on `COc1ncc(N(Cc2n[nH]c(C(F)(F)F)c2CC(C)O)C(=O)Nc2ccc(F)c(Cl)c2)cn1` (stereo not drawn) [Example 95, 3-(3-chloro-4-fluorophenyl)-1-((4-(2-hydroxypropyl)-5-(trifluoromethyl)-1H-pyrazol-3-yl)methyl)-1-(2-methoxypyrimidin-5-yl)urea] yielded a CC50 at 65 h [1] of 62.2 µM, a viability at 65 h, 100 µM [1] of 29.9% and an IC50 [2] of 830 nM.
In the case of `COc1ccc(N(Cc2cc(C(F)(F)F)[nH]n2)C(=O)Nc2ccc(F)c(F)c2)cn1` [Example 168, 3-(3,4-difluorophenyl)-1-(6-methoxypyridin-3-yl)-1-((5-(trifluoromethyl)-1H-pyrazol-3-yl)methyl)urea], the CC50 at 65 h [1] is reported as > 100 µM, the viability at 65 h, 100 µM [1] is reported as 59.8% and the IC50 [2] is reported as 73 nM.
`O=C(Nc1ccc(F)c(Cl)c1)N(Cc1n[nH]c2c1CCCO2)c1ccon1` [Example 136, 3-(3-chloro-4-fluorophenyl)-1-(isoxazol-3-yl)-1-((1,4,5,6-tetrahydropyrano[2,3-c]pyrazol-3-yl)methyl)urea] showed a CC50 at 65 h [1] of 64 µM, a viability at 65 h, 100 µM [1] of 7.3% and an IC50 [2] of 48 nM.
In the case of `COc1ncc(N(Cc2cc(C(F)(F)F)[nH]n2)C(=O)Nc2ccc(C(F)F)c(F)c2)cn1` [Example 206, 3-(4-(difluoromethyl)-3-fluorophenyl)-1-(2-methoxypyrimidin-5-yl)-1-((5-(trifluoromethyl)-1H-pyrazol-3-yl)methyl)urea], the CC50 at 65 h [1] is reported as > 100 µM, the viability at 65 h, 100 µM [1] is reported as 89.6% and the IC50 [2] is reported as 180 nM.
In the case of `COC12CC(N(Cc3cc(C(F)(F)F)[nH]n3)C(=O)Nc3ccc(F)c(C(F)F)n3)(C1)C2` [Example 214, 3-(6-(difluoromethyl)-5-fluoropyridin-2-yl)-1-(3-methoxybicyclo[1.1.1]pentan-1-yl)-1-((5-(trifluoromethyl)-1H-pyrazol-3-yl)methyl)urea], the CC50 at 65 h [1] is reported as > 100 µM, the viability at 65 h, 100 µM [1] is reported as 76.8% and the IC50 [2] is reported as 220 nM.
